These results are taken from ChEMBL document CHEMBL4385622, “Discovery of velpatasvir (GS-5816): A potent pan-genotypic HCV NS5A inhibitor in the single-tablet regimens Vosevi® and Epclusa®” (Bioorg Med Chem Lett, 2019).

Data set [1] in a line: Fraction absorbed in rat. It counts as ADME. As to conditions: in vivo, read-out: Fabs.
A short description of data set [2]: Fraction absorbed in dog. As to conditions: in vivo, read-out: Fabs. Format: ADME, Canis lupus familiaris.
Data set [3] can be described thus: Fraction absorbed in cynomolgus monkey. Format: ADME, Macaca fascicularis. As to conditions: in vivo, read-out: Fabs.
Data set [4] addresses T1, Nonstructural protein 5A (Hepatitis C virus) (UniProt Q5L478).
T1 sequence (whole entry): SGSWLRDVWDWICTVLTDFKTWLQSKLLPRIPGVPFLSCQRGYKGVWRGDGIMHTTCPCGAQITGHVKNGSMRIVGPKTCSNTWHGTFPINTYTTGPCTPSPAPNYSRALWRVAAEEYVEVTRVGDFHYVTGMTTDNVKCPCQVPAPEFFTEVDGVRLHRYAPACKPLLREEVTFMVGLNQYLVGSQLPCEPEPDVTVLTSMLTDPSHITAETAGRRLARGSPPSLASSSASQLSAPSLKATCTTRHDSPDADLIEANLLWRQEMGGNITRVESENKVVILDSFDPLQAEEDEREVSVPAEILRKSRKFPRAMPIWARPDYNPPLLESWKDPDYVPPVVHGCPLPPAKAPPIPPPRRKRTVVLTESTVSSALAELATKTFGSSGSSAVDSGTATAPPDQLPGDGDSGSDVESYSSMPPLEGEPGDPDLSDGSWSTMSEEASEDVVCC
The experiment in a line: Potency index, ratio of EC50 of ledipasvir to EC50 of test compound for inhibition of NS5A in HCV genotype 3a infected in human HuH7 replicon cells assessed as reduction in viral replication after 3 days by luciferase reporter gene assay. It counts as cell-based. As to conditions: Hepatitis C virus subtype 3a.

The target of data set [5] is T1, Nonstructural protein 5A (Hepatitis C virus). The experiment in a line: Potency index, ratio of EC50 of ledipasvir to EC50 of test compound for inhibition of NS5A in HCV genotype 2a J6 infected in human HuH7 replicon cells assessed as reduction in viral replication after 3 days by luciferase reporter gene assay. It counts as cell-based. The conditions noted are these: Hepatitis C virus subtype 2a. In general terms: Replicon systems follow genome replication, usually without infectious particles.

For data set [6] the target is unchanged. The experiment in a line: Potency index, ratio of EC50 of ledipasvir to EC50 of test compound for inhibition of NS5A in HCV genotype 2b infected in human HuH7 replicon cells assessed as reduction in viral replication after 3 days by luciferase reporter gene assay. It counts as cell-based. As to conditions: Hepatitis C virus subtype 2b.

For `COC(=O)N[C@H](C(=O)N1CCC[C@H]1c1ncc(-c2ccc3c(c2)COc2cc4c(ccc5nc([C@@H]6C[C@H](C)CN6C(=O)[C@@H](NC(=O)OC)C(C)C)[nH]c54)cc2-3)[nH]1)C(C)C`, the Fa in data set [1] came out at 10%.

`COC(=O)N[C@H](C(=O)N1CCC[C@H]1c1ncc(-c2ccc3c(c2)COc2cc4c(ccc5nc([C@@H]6CCCN6C(=O)[C@@H](NC(=O)OC)C(C)C)[nH]c54)cc2-3)[nH]1)C(C)C`: the Fa amounted to 50% in data set [2] and 15% in data set [1].

As for `COC[C@H]1C[C@@H](c2nc3ccc4cc5c(cc4c3[nH]2)OCc2cc(-c3cnc([C@@H]4C[C@H](C)CN4C(=O)[C@@H](NC(=O)OC)C(C)C)[nH]3)ccc2-5)N(C(=O)[C@@H](NC(=O)OC)C(C)C)C1`, in data set [1], the Fa is 11%.

For the compound `COC[C@H]1C[C@@H](c2ncc(-c3ccc4c(c3)COc3cc5c(ccc6nc([C@@H]7C[C@H](COC)CN7C(=O)[C@@H](NC(=O)OC)C(C)C)[nH]c65)cc3-4)[nH]2)N(C(=O)[C@@H](NC(=O)OC)C(C)C)C1`, the Fa in data set [1] is 10%.

On to `COC(=O)N[C@H](C(=O)N1CCC[C@H]1c1ncc(-c2ccc3c(c2)COc2cc4c(ccc5nc([C@@H]6CCCN6C(=O)[C@H](NC(=O)OC)c6ccccc6)[nH]c54)cc2-3)[nH]1)C(C)C`, for which the Fa in data set [2] is 56%; in data set [1], 13%; in data set [3], 16%.

With `COC(=O)N[C@H](C(=O)N1CCC[C@H]1c1ncc(-c2cc3c4c(c2)OCc2cc(-c5cnc([C@@H]6CCCN6C(=O)[C@@H](NC(=O)OC)C(C)C)[nH]5)cc(c2-4)OC3)[nH]1)C(C)C`, the Fa in data set [2] is 70%; in data set [1] it was 23%; in data set [3], 15%. Also, the Ratio EC50 in data set [4] came out at 4800; in data set [5], 28; in data set [6], 300.

Take `COC(=O)N[C@@H](C(=O)N1[C@@H](C)CC[C@H]1c1ncc(-c2cc3c4c(c2)OCc2cc(-c5cnc([C@@H]6CC[C@H](C)N6C(=O)[C@H](NC(=O)OC)c6ccccc6)[nH]5)cc(c2-4)OC3)[nH]1)c1ccccc1`: the values for the Fa in data set [2] and in data set [1] were 43% and 3%, respectively.

With `COC[C@H]1C[C@@H](c2ncc(-c3ccc4c(c3)COc3cc5c(ccc6nc([C@@H]7C[C@@H]8C[C@H]8N7C(=O)[C@@H](NC(=O)OC)C(C)C)[nH]c65)cc3-4)[nH]2)N(C(=O)[C@H](NC(=O)OC)c2ccccc2)C1`, the Fa in data set [1] was 13%.

In the case of `COC[C@H]1C[C@@H](c2ncc(-c3ccc4c(c3)COc3cc5c(ccc6nc([C@@H]7CCCN7C(=O)[C@@H](NC(=O)OC)C(C)C)[nH]c65)cc3-4)[nH]2)N(C(=O)[C@H](NC(=O)OC)c2ccccc2)C1`, the Fa amounted to 12% in data set [1] and 3% in data set [3].

As to `COC(=O)N[C@H](C(=O)N1[C@@H](C)CC[C@H]1c1ncc(-c2ccc3c(c2)COc2cc4c(ccc5nc([C@@H]6CC[C@H](C)N6C(=O)[C@@H](NC(=O)OC)C(C)C)[nH]c54)cc2-3)[nH]1)C(C)C`, the Fa in data set [2] was 100%; in data set [1] it was 27%; in data set [3], 53%.

As for `COC(=O)N[C@H](C(=O)N1CCC[C@H]1c1ncc(-c2cc3c4c(c2)COc2cc(-c5cnc([C@@H]6CCCN6C(=O)[C@@H](NC(=O)OC)C(C)C)[nH]5)cc(c2-4)OC3)[nH]1)C(C)C`, the Fa in data set [2] was found to be 100%; in data set [1] it was 18%.

Consider `COC(=O)N[C@H](C(=O)N1C[C@@H](C)C[C@H]1c1nc2ccc3cc4c(cc3c2[nH]1)OCc1cc(-c2cnc([C@@H]3C[C@H](C)CN3C(=O)[C@H](NC(=O)OC)c3ccccc3)[nH]2)ccc1-4)C(C)C`, for which the Fa in data set [1] was 4%.

As to `COC[C@H]1C[C@@H](c2nc3ccc4cc5c(cc4c3[nH]2)OCc2cc(-c3cnc([C@@H]4CC[C@H](C)N4C(=O)[C@@H](NC(=O)OC)C(C)C)[nH]3)ccc2-5)N(C(=O)[C@@H](NC(=O)OC)C(C)C)C1`, the Fa was determined as 13% in data set [1] and 64% in data set [3].

`COC[C@H]1C[C@@H](c2ncc(-c3cc4c5c(c3)OCc3cc(-c6cnc([C@@H]7CC[C@H](C)N7C(=O)[C@@H](NC(=O)OC)C(C)C)[nH]6)cc(c3-5)OC4)[nH]2)N(C(=O)[C@H](NC(=O)OC)c2ccccc2)C1`: the Fa in data set [1] turned out to be 29%; in data set [3], 26%.

As for `COC(=O)N[C@@H](C(=O)N1CCC[C@H]1c1ncc(-c2cc3c4c(c2)OCc2cc(-c5cnc([C@@H]6CCCN6C(=O)[C@H](NC(=O)OC)c6ccccc6)[nH]5)cc(c2-4)OC3)[nH]1)c1ccccc1`, the Fa in data set [2] is 34%; in data set [1] it was 2%; in data set [3] it was 2%.

With `COC[C@H]1C[C@@H](c2nc3ccc4cc5c(cc4c3[nH]2)OCc2cc(-c3cnc([C@@H]4CCCN4C(=O)[C@@H](NC(=O)OC)C(C)C)[nH]3)ccc2-5)N(C(=O)[C@@H](NC(=O)OC)C(C)C)C1`, the Fa in data set [2] was 56%; in data set [1] it was 16%.

`COC(=O)N[C@H](C(=O)N1CCC[C@H]1c1ncc(-c2ccc3c(c2)COc2c-3ccc3c2ccc2nc([C@@H]4CCCN4C(=O)[C@@H](NC(=O)OC)C(C)C)[nH]c23)[nH]1)C(C)C`: the Fa in data set [2] is 54%; in data set [1] it was 31%.

As for `COC[C@H]1C[C@@H](c2ncc(-c3ccc4c(c3)COc3cc5c(ccc6nc([C@@H]7C[C@H](C)CN7C(=O)[C@@H](NC(=O)OC)C(C)C)[nH]c65)cc3-4)[nH]2)N(C(=O)[C@H](NC(=O)OC)c2ccccc2)C1`, the Fa in data set [1] was 9%; in data set [3], 4%.

For the compound `COC(=O)N[C@H](C(=O)N1[C@@H](C)CC[C@H]1c1nc2ccc3cc4c(cc3c2[nH]1)OCc1cc(-c2cnc([C@@H]3C[C@H](C)CN3C(=O)[C@H](NC(=O)OC)c3ccccc3)[nH]2)ccc1-4)C(C)C`, the Fa in data set [1] stood at 4%.

Regarding `COC(=O)N[C@@H](C(=O)N1C[C@@H](C)C[C@H]1c1ncc(-c2cc3c4c(c2)OCc2cc(-c5cnc([C@@H]6C[C@H](C)CN6C(=O)[C@H](NC(=O)OC)c6ccccc6)[nH]5)cc(c2-4)OC3)[nH]1)c1ccccc1`, the Fa in data set [2] worked out at 30%; in data set [1], 2%.
